Test results from paper PMC12104086, “Identification of a multiple DAMP scavenger mimicking the DAMP-binding site of TLR4 to ameliorate lethal sepsis” (Frontiers in Immunology, 2025).

How the values were obtained:
RAW264.7 cells = experiment: MTS cytotoxicity assay; format: cell-based, mouse; conditions: 20 h, n=3-4, versus PBS
Method: (§1) Supplemental Figure 6: Toxicity Assay of OP18
(§2) Note: (A) RAW264.7 cells were treated with OP18 for 20 h and MTS assay was performed using a CellTiter 96® AQueous Non-Radioactive Cell Proliferation Assay kit (Promega, Madison, Wisconsin) according to the manufacturer’s instructions. (B) Mouse peritoneal macrophages were treated with OP18 for 20 h and CyQUANT™ LDH Cytotoxicity Assay (Thermo Fisher Scientific, Waltham, MA) was performed according to the manufacturer’s instruction s. Data are expressed as mean ± SEM (n=3-4 samples/group) and compared by one -way ANOVA and a Tukey’s multiple comparison test. ns: not significant, *p < 0.05 versus PBS (C, D) Sham mice were treated with OP18 for 20h and blood were collected. (C) IL-6 and (D) TNFα were […]
(§3) Data are expressed as mean ± SEM and compared by unpaired two -tailed Student’s t-test. not significant (ns) vs sham.
(§4) (1 picture or pasted object on this page, not shown here)

[1] = tested on: mouse peritoneal macrophages; experiment: LDH cytotoxicity assay; format: cell-based; conditions: 20 h, n=3-4, versus PBS
Method: as §1, §2, §3, §4

C57BL/6 mice (sham) = experiment: Cytokine production in sham mice treated with OP18; format: in vivo, mouse; conditions: OP18-treated sham versus sham, 20 h, blood, ELISA
Method: as §1, §2, §3, §4

[2] = tested on: C57BL/6 mice, cecal ligation and puncture (CLP); experiment: CLP lethal sepsis model, 20 h: plasma DAMPs, serum cytokines and organ injury markers; format: in vivo, mouse; conditions: 80 nmol/kg i.p. once at abdominal closure, 20 h after CLP; n = 7–9; scrambled: vs sham; OP18: vs scrambled peptide; p < 0.05
Method: Polymicrobial sepsis was induced in mice by cecal ligation and puncture (CLP) ([7], [23]). Mice were anesthetized with isoflurane, and a midline abdominal incision was performed. The cecum was ligated with a 4–0 silk suture 1 cm proximal from its distal extremity and puncture using a 22-G needle was made twice (through and through) for a 20-h study and once for a survival study. A control (scrambled peptide) or OP18, both with 80 nmol/kg body weight (BW), was injected intraperitoneally (i.p.) before the closure. Sham animals were subjected to a laparotomy without CLP. Following the surgery, 1 mL of saline was injected subcutaneously to avoid surgery-induced dehydration, and 0.05 mg/kg buprenorphine was injected subcutaneously as an analgesic; 20 h after the surgery, the blood and lungs were collected. In the 20-h model, antibiotics were not administered, whereas in the survival study, 0.5 mg/kg BW of Imipenem was injected subcutaneously.
Blood was collected, centrifuged at 1,000 × g for 10 min, and plasma or serum was separated. Plasma levels of eCIRP, HMGB1, and histone H3 were analyzed by ELISA kits according to the manufacturer’s instruction (eCIRP from American Research Products, Inc., Waltham, MA, USA, HMGB1 from Invitrogen, Thermo Fisher Scientific, and histone H3 from LS Bio, Shirley, MA, USA). Serum levels of IL-6 and TNF-α were analyzed by ELISA kits (IL-6 and TNF-α both from BD Biosciences, Franklin Lakes, NJ, USA) according to the manufacturer’s instruction. Serum levels of aspartate aminotransferase (AST), lactate dehydrogenase (LDH), blood urea nitrogen (BUN), and creatinine (Cre) were measured by specific colorimetric enzymatic assays (Pointe Scientific, Canton, MI). Absorbance was measured on a Synergy Neo2 (Agilent Technologies) according to the manufacturer’s instructions.
Figure 4 OP18 alleviates systemic inflammation and tissue injury in sepsis. Intraperitoneal injection of 80 nmol/kg scrambled peptide or 80 nmol/kg OP18 was performed on CLP mice before skin closure. Blood and lungs were collected 20 h after CLP. (A–C) Plasma levels of (A) eCIRP, (B) HMGB1, and (C) histone H3. (D–I) Serum levels of (D) IL-6, (E) TNF-α, (F) AST, (G) LDH, (H) BUN, and (I) Cre. Data are expressed as mean ± SEM (n = 7–9 samples/group) and were compared using one-way ANOVA followed by Tukey’s multiple comparison test. ^* p < 0.05 versus sham; ^# p < 0.05 versus scrambled peptide. Experiments were performed three times, and all data were used for analysis.

Row | Compound | cytotoxicity on macrophages (MTS) (RAW264.7 cells) | cytotoxicity on macrophages (LDH) [1] | IL-6 in sham mice (C57BL/6 mice (sham)) | TNFα in sham mice (C57BL/6 mice (sham)) | plasma HMGB1 level [2] | plasma eCIRP level [2] | plasma histone H3 level [2] | serum AST [2] | serum BUN [2] | serum Cre [2] | serum IL-6 [2] | serum LDH [2] | serum TNF-α [2]
1 | CC[C@H](C)[C@H](NC(=O)[C@H](CC(N)=O)NC(=O)[C@H](CO)NC(=O)[C@H](CO)NC(=O)[C@H](CC(N)=O)NC(=O)[C@H](Cc1ccccc1)NC(=O)[C@H](CC(N)=O)NC(=O)CN)C(=O)N[C@@H](CCSC)C(=O)N[C@@H](CCCCN)C(=O)N[C@H](C(=O)N[C@@H](CS)C(=O)N[C@@H](CC(C)C)C(=O)N[C@@H](CCC(N)=O)C(=O)N[C@@H](CC(N)=O)C(=O)N[C@@H](CCCNC(=N)N)C(=O)NCC(=O)N[C@@H](CC(=O)O)C(=O)O)[C@@H](C)O [OP18] | did not observe any cytotoxicity | did not observe any cytotoxicity | No significant difference | No significant difference |  |  |  |  |  |  |  |  | 
2 | NRKINMGSFTQCSNNLGD [scrambled peptide, scrambled control peptide for OP18 ([…])] |  |  |  |  | significantly elevated | significantly elevated | significantly elevated | significantly elevated | significantly elevated | significantly elevated | significantly elevated | significantly elevated | significantly elevated
